# Reference: article PMC9617852, “In vitro and in vivo assessment of the antioxidant potential of isoxazole derivatives” (Scientific Reports, 2022)
# Read-outs that look alike come from different tables or passages of the source. Marks after values point to notes of the source that are not given here.
# Key:
# [1] = target: T1, porcine pancreatic α-amylase (Sus scrofa, UniProt P00690); assay: α-Amylase inhibitory assay; type: biochemical
# T1 construct: purchased Alfa Aesar, Sigma-Aldrich, and Frutarom (UK)
# T1 sequence (P00690 16-511): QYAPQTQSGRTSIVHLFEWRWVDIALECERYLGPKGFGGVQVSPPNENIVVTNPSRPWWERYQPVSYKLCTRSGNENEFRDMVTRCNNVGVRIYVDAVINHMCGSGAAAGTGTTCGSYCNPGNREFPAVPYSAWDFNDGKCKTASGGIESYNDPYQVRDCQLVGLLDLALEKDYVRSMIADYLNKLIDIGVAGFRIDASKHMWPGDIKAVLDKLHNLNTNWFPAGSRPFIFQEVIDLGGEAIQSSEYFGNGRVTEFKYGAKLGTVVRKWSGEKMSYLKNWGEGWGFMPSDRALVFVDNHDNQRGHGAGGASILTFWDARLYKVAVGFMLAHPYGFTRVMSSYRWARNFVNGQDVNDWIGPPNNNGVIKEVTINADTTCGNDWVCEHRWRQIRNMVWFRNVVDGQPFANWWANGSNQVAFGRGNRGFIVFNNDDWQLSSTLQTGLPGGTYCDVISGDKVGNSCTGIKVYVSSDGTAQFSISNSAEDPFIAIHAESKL
# Experimental: A 5 mg of each fraction was dissolved in a few milliliters of 10% DMSO, and then further dissolved up to 100 ml in 0.02 M Na2HPO4/NaH2PO4, 0.006 M NaCl, pH 6.9 to give finally stock solutions with concentrations of 1000 μg/ml. From these, the following dilutions were prepared of 10, 50, 70, 100, and 500 μg/ml, using 10% DMSO as the diluent. A 0.2 ml volume of 2 units/ml porcine pancreatic α-amylase was mixed with 0.2 ml compounds dilution and was incubated for 10 min at 30 °C. After incubation, 0.2 ml of a freshly prepared 1% starch solution in water was added, and the tubes were then incubated for at least three more minutes. At this point, the reaction was stopped by the addition of 0.2 ml 3,5-dinitro salicylic acid (DNSA) color reagent and was diluted with 5 ml of distilled water, before being heated at 90 °C for 10 min in a water bath. The mixture was then cooled to room temperature, and the absorbance was measured at 540 nm. The blank control was prepared using the same quantities described above, but replacing the compound solution with 0.2 ml buffer.
# [2] = test system: total antioxidant capacity (TAC) in the blood of mice; assay: In vivo total antioxidant capacity (TAC) in mice, Abcam ab65329 kit; conditions: for TAC (Trolox equivalents): plasma
# Experimental: For this purpose, the TAC was determined using a commercially available assay kit (Abcam ab65329), in four groups of mice: 2a treated (5 mg/kg over 6 days, n = 5), 2a treated (10 mg/kg over 6 days, n = 5), quercetin treated (positive control; 10 mg/kg over 6 days, n = 5), and vehicle-treated (negative control; n = 5). All mice were sacrificed seven days after the treatment (or the first administration of the vehicle).
# The absorbance values of the used kit were plotted against a serial concentration of Trolox standards in the concentration range of (4–20 nM). […] The generated regression line equation was utilized to calculate the Trolox equivalent total antioxidant activity of the injected compound and positive quercetin control of the experimental mice. The average results of the total antioxidant activity of ten replicates of plasma samples were reported. […] The summary of the results is shown in (Fig. 6).
# Twenty mice were divided into four groups randomly, with five mice in each. The first group was administered with our novel compound 2a (5 mg/kg), the second group with the same compound (10 mg/kg), the third group with Quercetin (10 mg/kg) as a positive control, and the fourth group with normal saline (20%) and propylene glycol 80% as a negative control group.
# To test the TAC of the novel compound, four groups of mice were injected intraperitoneal (i.p.) and employed with vehicle (80% polyethylene glycol (PG) and 20% normal saline (NS) for 6 days. The first and second groups were injected with 5 and 10 mg/kg/day of 2a compound dissolved in the same vehicle, respectively. The third group was injected with a known antioxidant agent positive control (Quercetin), with 10 mg/kg/day, and the last group was the negative control group (80% polyethylene glycol (PG) and 20% Normal saline (NS). All mice were anesthetized with ketamine (60 mg/kg) and xylazine (5 mg/kg) and sacrificed 24 h after the final injection. Then, the mouse blood sample was collected and centrifuged to collect serum. For long-term stability, serum was frozen at − 20 °C[27],[28].
# All mice were sacrificed after seven days of treatment by placing each mouse in a plexiglass chamber with 5% of isoflurane anesthetic drug, for 5 min, and then when the mouse was fully sedated, they were sacrificed by rapid decapitation. Trunk blood was collected in EDTA-coated tubes for use in the kit assay[29],[30].
# Using DPPH assay that basis on measures the total antioxidant capacity (TAC) of compounds that can transfer hydrogen atoms. […] Antioxidant compounds, which can transfer an electron to DMPD• + , cause a discoloration of the solution. […] The reduced Cu + ion is chelated with a colorimetric probe giving a broad absorbance peak around 570 nm, proportional to the total antioxidant capacity. […]
# [3] = DPPH free radical scavenging assay (in vitro antioxidant activity); conditions: DPPH in methanol, 30 min in the dark at 25 °C, absorbance 517 nm
# From the text: To determine the antioxidant activities, the 2,2-Diphenyl-1-picrylhydrazyl (DPPH) was used, which is considered one of the most widely used methods for measuring the in vitro antioxidant activity of various chemical compounds. This colorimetric method is accurate, easy to perform, and economical, providing a screening of the general activity of the antioxidants and is based on a stable and synthetic radical, DPPH[15].
# When DPPH reacts with an antioxidant compound, its free radical property is lost and its color changes from violet to yellow. The decrease in absorbance at 517 nm induced by antioxidants determines the reduction ability of DPPH.
# The free DPPH radical scavenging assay was used to measure the antioxidant activity of the isoxazole derivatives. A 1000 μg/ml stock solution of each compound was prepared in methanol. In addition, a 1000 μg/ml solution of Trolox was also prepared (the reference standard). […] Optical densities were then measured with a spectrophotometer at a wavelength of 517 nm. The following equation was used to calculate % DPPH inhibition for each compound, with Trolox as the standard compound: DPPHinhibition%=AB-Ats/AB×100% where, AB is the recorded absorbance of the blank solution, and Ats is the recorded absorbance of the tested sample solution[25].
# [4] = target: T2, porcine pancreatic lipase (Sus scrofa, UniProt P00591); assay: Porcine pancreatic lipase inhibition assay; type: biochemical; conditions: substrate p-nitrophenyl butyrate, 37 °C, 410 nm; highest concentration 400 µg/ml
# T2 construct: purchased Alfa Aesar, Sigma-Aldrich, and Frutarom (UK)
# T2 sequence (P00591 1-450): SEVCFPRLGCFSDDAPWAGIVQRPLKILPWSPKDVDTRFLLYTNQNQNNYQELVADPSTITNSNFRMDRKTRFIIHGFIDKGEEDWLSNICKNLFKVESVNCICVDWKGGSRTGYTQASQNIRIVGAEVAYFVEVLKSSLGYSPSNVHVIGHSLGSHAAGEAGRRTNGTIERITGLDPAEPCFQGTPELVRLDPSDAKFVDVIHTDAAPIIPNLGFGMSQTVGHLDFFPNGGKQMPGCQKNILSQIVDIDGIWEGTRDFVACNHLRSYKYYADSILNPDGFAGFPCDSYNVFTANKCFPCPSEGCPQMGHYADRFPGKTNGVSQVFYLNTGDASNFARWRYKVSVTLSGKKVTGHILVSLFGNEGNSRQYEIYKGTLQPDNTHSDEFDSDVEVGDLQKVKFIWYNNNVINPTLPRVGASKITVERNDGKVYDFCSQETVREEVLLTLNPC
# Experimental: Stock solutions of 500 µg/ml were made from each compound in 10% DMSO. From these, a dilution series of five concentrations of 50, 100, 200, 300, and 400 μg/ml were made. A 1 mg/ml stock solution of porcine pancreatic lipase in Tris–HCl buffer was prepared freshly just before use. The substrate, p-nitrophenyl butyrate (PNPB) was prepared by dissolving 20.9 mg in 2 ml acetonitrile. For each working solution, 0.1 ml porcine pancreatic lipase was mixed with 0.2 ml of compound solution from each member of the dilution series. Tris–HCl was added to make the final volume of the working solutions 1 ml, and they were incubated at 37 °C for 15 min. After incubation, 0.1 ml p-nitrophenyl butyrate solution was added to each test tube. The mixture was then incubated for a further 30 min at 37 °C. Pancreatic lipase activity was determined by measuring the hydrolysis of PNPB into p-nitrophenolate at 410 nm, using a UV spectrophotometer. […] Percentage lipase inhibition by compound dilution was calculated with the following equation: Lipaseinhibition%=AB-Ats/AB×100% where, AB is the recorded absorbance of the blank solution, and Ats is the recorded absorbance of the tested sample solution[31].
# Water solubility = type: physicochemical; conditions: can be dissolved with propylene glycol
# Hep3B = test system: Hep3B; set-up: method as in doi:10.1515/chem-2021-0078; conditions: Hep3B cancer cell line; cited from earlier work
# [5] = set-up: method as in PMID 33763478; conditions: similar isoxazole series, earlier report; cited from earlier work
smiles,measurement,setting,value
"C[C@H]1O[C@H](O[C@H]2[C@H](O)[C@@H](O)[C@@H](O[C@H]3[C@H](O)[C@@H](O)C(O)O[C@@H]3CO)O[C@@H]2CO)[C@H](O)[C@@H](O)[C@@H]1N[C@H]1C=C(CO)[C@@H](O)[C@H](O)[C@H]1O (stereo partly drawn) [Acarbose, reference compound]",inhibition at 500 µg/mL,[1]; read-out: percentage of inhibition of α-amylase,72.5%
"O=c1c(O)c(-c2ccc(O)c(O)c2)oc2cc(O)cc(O)c12 [Quercetin, reference compound]",TAC (Trolox equivalents),[2]; 10 mg/kg i.p. over 6 days,221.0 nmol L–1
"Cc1onc(-c2ccc(F)cc2)c1C(=O)Nc1ccc(C(C)(C)C)cc1 [2a, N-(4-(tert-butyl)phenyl)-3-(4-fluorophenyl)-5-methylisoxazole-4-carboxamide]",IC50 DPPH,[3],0.45 ± 0.21 µg/mL
same,IC50,[4],> 1140 µM
same,water solubility,Water solubility,low water solubility
same,TAC (Trolox equivalents),[2]; 5 mg/kg i.p. over 6 days,640.2 nmol L–1
same,TAC (Trolox equivalents),[2]; 10 mg/kg i.p. over 6 days,682.9 nmol L–1
same,TAC relative to mice treated with the positive control Quercetin,[2]; i.p.,two folds greater
same,IC50,"[1]; starch substrate, DNSA, 540 nm, highest concentration 500 µg/ml",> 1420 µM
same,IC50 against Hep3B,Hep3B,9.58 µg/mL
Cc1onc(-c2ccccc2Cl)c1C(=O)Nc1ccc(C(C)(C)C)cc1 [N-(4-(tert-butyl)phenyl)-3-(2-chlorophenyl)-5-methylisoxazole-4-carboxamide],IC50 DPPH,[5],7.8 µg/mL
"Cc1c(C)c2c(c(C)c1O)CCC(C)(C(=O)O)O2 (stereo not drawn) [Trolox, reference compound]",IC50 DPPH,[3],3.10 ± 0.92^a µg/ml
